Experimental findings from paper PMC3493679 (Hepatology (Baltimore, Md.), 2012) are described below.

Read-outs that look alike come from different tables or passages of the source.

One assay concerns the target T1, human Nox4 (Homo sapiens, UniProt Q9NPH5).
T1 sequence (Q9NPH5 1-578): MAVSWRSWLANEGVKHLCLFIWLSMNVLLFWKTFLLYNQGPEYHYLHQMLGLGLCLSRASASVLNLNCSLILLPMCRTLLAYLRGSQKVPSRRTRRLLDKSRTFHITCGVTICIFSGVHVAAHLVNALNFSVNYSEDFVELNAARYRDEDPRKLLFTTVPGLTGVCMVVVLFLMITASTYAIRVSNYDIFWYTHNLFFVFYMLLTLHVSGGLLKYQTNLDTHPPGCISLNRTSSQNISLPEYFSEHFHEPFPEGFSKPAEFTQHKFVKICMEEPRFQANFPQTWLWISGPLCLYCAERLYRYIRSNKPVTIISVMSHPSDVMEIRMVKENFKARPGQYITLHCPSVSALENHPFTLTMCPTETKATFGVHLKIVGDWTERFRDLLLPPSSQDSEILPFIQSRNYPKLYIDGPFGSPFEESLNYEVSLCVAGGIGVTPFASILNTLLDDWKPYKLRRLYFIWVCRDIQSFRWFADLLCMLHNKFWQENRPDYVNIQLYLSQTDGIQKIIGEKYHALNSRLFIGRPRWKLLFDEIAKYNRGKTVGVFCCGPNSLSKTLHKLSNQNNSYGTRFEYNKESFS
T1 sequence (P13498 2-195 partner limits assumed): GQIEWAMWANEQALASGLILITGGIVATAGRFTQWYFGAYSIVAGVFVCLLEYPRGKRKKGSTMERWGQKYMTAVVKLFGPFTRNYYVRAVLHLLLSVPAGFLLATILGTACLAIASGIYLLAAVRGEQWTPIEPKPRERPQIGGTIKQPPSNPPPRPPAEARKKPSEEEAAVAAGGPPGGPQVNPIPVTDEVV
The format is biochemical. To be noted: read-out: Ki on Nox4; cell free membrane assay.

The target in another assay is xanthine oxidase (Homo sapiens, UniProt P47989). In words: xanthine oxidase assay, same ROS read-out as NOX assays. The format is biochemical.
The next assay has as its system Rac1. As to the kind of experiment: Rac1 G-LISA activation assay in HSCs. The format is cell-based, mouse. To be noted: WT and SOD1mu HSCs, 20 μM, 24 hours.
In the next assay the test system is 170 different proteins. As to the kind of experiment: in vitro off-target pharmacological profile. Conditions: tested at 10 μM.
The subject of assay [1] is HSCs. As to the kind of experiment: ROS generation in DCFDA-loaded HSCs. In kind it is cell-based, mouse. Conditions: SOD1mu and WT HSCs, Ang II 10^−6 M, 20 μM.
Assay [2] concerns CCl4-induced liver fibrosis. In words: CCl4 model of liver fibrosis. In kind it is in vivo, mice.
In assay [3] the test system is HSCs. In words: gene expression in Ang II stimulated HSCs. The format is cell-based, mouse. To be noted: Ang II 10^−6 M, 20 μM, 24 hours.
A further assay deals with colI-GFP HSCs. In words: collagen promoter-driven GFP expression in HSCs. The format is cell-based, mouse. To be noted: SOD1mu and WT HSCs, Ang II 10^−6 M, 20 μM, 24 hours.
For the next assay, the target named is T2, human Nox1 (Homo sapiens, UniProt Q9Y5S8).
T2 sequence (Q9Y5S8 1-564): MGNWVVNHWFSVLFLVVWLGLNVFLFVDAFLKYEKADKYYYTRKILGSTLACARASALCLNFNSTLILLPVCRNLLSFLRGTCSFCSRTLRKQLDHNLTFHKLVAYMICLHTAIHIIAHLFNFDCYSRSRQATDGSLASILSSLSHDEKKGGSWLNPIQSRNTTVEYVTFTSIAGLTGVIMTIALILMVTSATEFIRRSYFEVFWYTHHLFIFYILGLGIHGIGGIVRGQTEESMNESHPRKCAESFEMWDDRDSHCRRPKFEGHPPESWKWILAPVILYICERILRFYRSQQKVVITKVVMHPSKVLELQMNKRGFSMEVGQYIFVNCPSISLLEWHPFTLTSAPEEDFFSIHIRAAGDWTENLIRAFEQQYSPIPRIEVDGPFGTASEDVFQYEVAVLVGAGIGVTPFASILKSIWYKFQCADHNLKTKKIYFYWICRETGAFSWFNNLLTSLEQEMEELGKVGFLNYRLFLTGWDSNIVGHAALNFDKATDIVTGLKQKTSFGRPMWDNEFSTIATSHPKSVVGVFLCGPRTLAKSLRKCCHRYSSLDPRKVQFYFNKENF
T2 sequence (P13498 2-195 partner limits assumed): T1 sequence (P13498 2-195 partner limits assumed)
In kind it is biochemical.

A further assay concerns activated HSCs. In words: gene expression in culture-activated primary HSCs. To be noted: 20 μM. The format is cell-based, mouse.
In assay [4] the test system is BDL-induced hepatic fibrosis. As to the kind of experiment: bile duct ligation. In kind it is in vivo. Conditions: WT and SOD1mu mice, 60 mg/kg daily from day 11.
Assay [5] deals with NOX2-driven neutrophil oxidative burst. As to the kind of experiment: neutrophil oxidative burst by flow cytometry in human whole blood. The format is cell-based. To be noted: up to 100uM. (In general: In flow cytometry, cells or beads pass a laser one at a time.)
Where [6] appears, read: CCl4 treated SOD1mu mice, 60 mg/kg daily.
Setting [7] is: SOD1mu and WT mice, 60 mg/kg daily.

Chain of xanthine oxidase (P47989 whole entry, species assumed): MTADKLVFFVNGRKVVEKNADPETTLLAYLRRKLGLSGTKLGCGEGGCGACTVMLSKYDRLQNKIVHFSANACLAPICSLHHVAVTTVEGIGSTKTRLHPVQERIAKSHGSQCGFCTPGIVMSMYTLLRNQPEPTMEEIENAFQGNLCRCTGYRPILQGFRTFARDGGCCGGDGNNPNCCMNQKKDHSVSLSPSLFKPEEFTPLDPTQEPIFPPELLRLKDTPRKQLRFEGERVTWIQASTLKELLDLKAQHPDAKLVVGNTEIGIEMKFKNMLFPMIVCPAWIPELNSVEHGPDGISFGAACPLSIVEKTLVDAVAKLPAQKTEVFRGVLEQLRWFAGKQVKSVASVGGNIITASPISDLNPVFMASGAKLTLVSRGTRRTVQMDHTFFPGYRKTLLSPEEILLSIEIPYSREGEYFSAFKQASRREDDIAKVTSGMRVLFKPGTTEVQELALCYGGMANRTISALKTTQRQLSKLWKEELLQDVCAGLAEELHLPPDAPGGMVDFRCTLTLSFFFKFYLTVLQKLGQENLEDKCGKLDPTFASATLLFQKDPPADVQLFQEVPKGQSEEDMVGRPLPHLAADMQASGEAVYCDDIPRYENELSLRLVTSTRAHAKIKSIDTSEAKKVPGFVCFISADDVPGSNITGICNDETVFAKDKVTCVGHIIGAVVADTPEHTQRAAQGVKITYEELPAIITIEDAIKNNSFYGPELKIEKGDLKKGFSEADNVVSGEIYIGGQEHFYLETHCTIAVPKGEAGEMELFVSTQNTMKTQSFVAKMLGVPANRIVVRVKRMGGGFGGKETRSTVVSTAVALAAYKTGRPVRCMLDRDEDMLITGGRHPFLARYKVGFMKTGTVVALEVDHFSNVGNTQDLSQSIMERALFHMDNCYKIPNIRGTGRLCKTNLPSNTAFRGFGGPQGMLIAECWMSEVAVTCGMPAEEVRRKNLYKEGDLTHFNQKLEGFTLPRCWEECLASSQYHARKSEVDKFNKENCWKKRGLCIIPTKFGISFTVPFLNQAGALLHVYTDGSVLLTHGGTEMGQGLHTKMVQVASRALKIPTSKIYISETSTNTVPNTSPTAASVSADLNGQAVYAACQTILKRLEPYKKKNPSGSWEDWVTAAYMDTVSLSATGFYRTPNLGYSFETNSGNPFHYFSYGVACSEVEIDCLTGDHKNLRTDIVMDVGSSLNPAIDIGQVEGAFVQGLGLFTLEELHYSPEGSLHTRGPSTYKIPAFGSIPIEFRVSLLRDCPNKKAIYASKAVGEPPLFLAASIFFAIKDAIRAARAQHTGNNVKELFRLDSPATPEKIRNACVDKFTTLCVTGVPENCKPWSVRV

What is called Ki is the equilibrium dissociation constant of an inhibitor or competing ligand from its target. In the case of `c1ccc([I+]c2ccccc2)cc1` [DPI, Diphenyliodonium, reference compound], the Ki on human Nox4 was 0.07 ± 0.01 µM; at xanthine oxidase (read-out: Ki on xanthine oxidase), 0.05 µM.

Take `CN(C)c1cccc(-c2c3c(=O)n(-c4ccccc4Cl)[nH]c3cc(=O)n2C)c1` [GKT137831, 2-(2-chlorophenyl)-4-[3-(dimethylamino)phenyl]-5-methyl-1H-pyrazolo[4,3-c]pyridine-3,6(2H,5H)-dione]: the “Rac1 activity after Ang II stimulation” value in the assay with Rac1 was “no effect”. Besides, the “inhibition of off-target proteins” value with 170 different proteins is “did not show any significant inhibition of any tested target protein”. In the assay on HSCs [1], the “Ang II induced ROS generation” value was “suppressed”. Further, the “liver inflammation and injury” value in assay [2] (CCl4 treated SOD1mu and WT mice, 60 mg/kg daily) was “inhibited to similar lower levels”. In assay [2] (setting [6]), the “hepatic 4-HNE levels” value is “suppressed”, the “hepatic MDA levels (TBARS)” value is reported as “suppressed”, the “hepatic mRNA expression of TNF-α” value was “suppressed” and the “serum ALT levels” value was “reduced”. For the same molecule, the “macrophage infiltration and activation (F4/80, CD68)” value in [2] (CCl4 treated mice, 60 mg/kg daily) is “prevented macrophage infiltration and activation”. Also, in [2] (setting [7]), the “hepatic collagen deposition (Sirius red staining)” value is “reduced”; the “hepatic mRNAs of collagen α1(I), TIMP-1 and TGF-β” value is reported as “reduced the induction of those genes to the same lower levels”. Besides, the CCl4-induced liver fibrosis result in assay [2] (SOD1mu and WT mice, 60 mg/kg intragastric daily, last half of CCl4 treatment) is given as “attenuated”. The “hepatic α-SMA expression” value in [2] (SOD1mu mice, immunohistochemistry and immunoblotting, 60 mg/kg daily) is “markedly decreased”. Further, the “Ang II induced NOX1 and NOX4 mRNA expression” value with HSCs [3] (SOD1mut and WT HSCs) is reported as “suppressed”. Besides, the “Ang II induced collagen α1(I) and TIMP-1 mRNA expression” value in the assay on HSCs [3] (WT and SOD1mu HSCs) is “blocked”. In the assay with colI-GFP HSCs, the “Ang II induced GFP fluorescence (collagen α1(I) promoter)” value is “suppressed”. Moreover, the affinity on human Nox1, expressed as Ki, was 0.11 ± 0.03 µM. In the assay with activated HSCs (activated SOD1mu HSCs), the “NOX4 and NOX1 mRNA expression” value is reported as “suppressed”. Further, in the assay with activated HSCs (activated SOD1mu and WT HSCs), the “collagen α1(I) and Acta2 mRNA expression” value is recorded as “reduced”. Besides, the BDL-induced hepatic fibrosis result in assay [4] was “decreased”. Further, the “inhibition of neutrophil oxidative burst” value in assay [5] was “did not significantly inhibit”. For the same molecule, on xanthine oxidase, the Ki is over 100 µM and the “scavenging of superoxide (O2•−)” value is recorded as “inability to scavenge superoxide”.
